Earlier results, collected in patent US12447190B1, “Vasopressin premix systems and uses thereof” (Baxter International Inc., priority 2023, dated 2025).

Assays:
[1] = system: patients with vasodilatory shock

In the case of `NC(=O)CC[C@@H]1NC(=O)[C@H](Cc2ccccc2)NC(=O)[C@H](Cc2ccc(O)cc2)NC(=O)[C@@H](N)CSSC[C@@H](C(=O)N2CCC[C@H]2C(=O)N[C@@H](CCCN=C(N)N)C(=O)NCC(N)=O)NC(=O)[C@H](CC(N)=O)NC1=O` [vasopressin, Cyclo (1-6) L-Cysteinyl-L-Tyrosyl-L-Phenylalanyl-L-Glutaminyl-L-Asparaginyl-L-Cysteinyl-L-Prolyl-L-Arginyl-L-Glycinamide], the “time for pressor effect to fade” value ([1]; after stopping the infusion) is listed as no more than 20 min, the “time for pressor effect to reach its peak” value ([1]; infusion in patients) is listed as no more than 15 min and the “time to steady state plasma concentrations” value (continuous intravenous infusion) is listed as 30 min. For the same compound, the “vasopressin plasma concentrations versus infusion rate” value (infusion rates from 10 to 200 U/kg/min) was “increases linearly”.
